In the test the target is T1, LipN (Mycolicibacterium smegmatis, UniProt I7G6G5).
T1 sequence (I7G6G5 1-378): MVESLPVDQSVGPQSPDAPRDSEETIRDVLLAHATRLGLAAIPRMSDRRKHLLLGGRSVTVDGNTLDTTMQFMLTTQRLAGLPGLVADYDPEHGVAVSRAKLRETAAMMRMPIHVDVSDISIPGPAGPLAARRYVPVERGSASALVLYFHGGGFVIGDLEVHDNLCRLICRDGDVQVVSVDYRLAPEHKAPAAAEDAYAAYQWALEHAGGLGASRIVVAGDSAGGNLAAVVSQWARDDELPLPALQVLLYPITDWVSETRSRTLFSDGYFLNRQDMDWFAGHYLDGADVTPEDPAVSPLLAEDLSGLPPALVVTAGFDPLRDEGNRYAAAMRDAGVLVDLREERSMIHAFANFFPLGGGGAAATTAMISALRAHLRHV
Description: fluorogenic ester hydrolysis, initial rates, Michaelis-Menten fit. The format is biochemical. The following applies: PBS pH 7.4, 0.1 mg/mL acetylated BSA, 25 C.

SMILES strings stand for the structures.

Take `O=C(OCOc1ccc2c(c1)Oc1cc(OCOC(=O)c3cnco3)ccc1C21OC(=O)c2ccccc21)c1cnco1` [compound 7, substrate 7]: the KM entry is “Msmeg LipN has high enzymatic activity against the oxazole ester substrate”.

The values are drawn from publication PMC11279797, “Shifting Mycobacterial Serine Hydrolase Activity Visualized Using Multi-Layer In-Gel Activity Assays” (Molecules, 2024).
